# Test results published in patent US20100056623A1, “FUMAGILLOL DERIVATIVES OR METHOD FOR PREPARATION OF FUMAGILLOL DERIVATIVES, AND PHARMACEUTICAL COMPOSITIONS COMPRISING THE SAME” (CHONG KUN DANG PHARMACEUTICAL CORP., priority 2005, published 2010).
# Assays:
# [1] = system: CPAE (calf pulmonary artery endothelial cell); experiment: Inhibiting activity on cell proliferation, SRB analysis (CPAE); type: cell-based; conditions: for IC50: Bos taurus, Endothelial cell, 72 h, CPAE cells, 3 days with drug, SRB, read-out: IC50 (nM) CAPE; for effect compared to CKD-731 against CPAE: relative to CKD-731; for effect compared to CKD-731 against SI: safety/selectivity index relative to CKD-731
# Method: (§1) In order to compare the safety index (SI) of CPAE (calf pulmonary artery endothelial cell) with that of HUVEC (human umbilical vein endothelial cell), L5178Y lymphoma that was isolated from murine thymus was used. The safety index was defined as IC50 ratio of L5178Y against CPAE (IC50L5178Y/IC50CPAE). All cell lines, which had been kept in liquid nitrogen tank, were used after being thawed and subcultured 2˜3 times in T-flask. CPAE, HUVEC and L5178Y were cultured in MEM culture medium (20% FBS, 50˜100 μg/ml ECGS, 0.15% baking soda, 0.05 mg/ml gentamicin), M199 culture medium (20% FBS, 0.22% baking soda, 100 μg/ml heparin, 3 ng/ml bFGF, 0.05 mg/ml gentamicin) and RPMI 1640 culture medium (10% FBS, 0.2% baking soda, 0.05 mg/ml gentamicin), respectively, under the condition of 37° C. and 5% CO2.
# (§2) The drug was prepared by being gradationally diluted to two or ten times by using PBS, 20 μl of the solution was added to each well of 96 well plate in triplicate. The cell, which is being incubated, was treated with trypsin to give cell suspension. The number of cell thereafter was counted. And 180 μl of the solution was inoculated to each well and cultured.
# The cell was cultured with drugs for 3 days and then 50 μl of 50% TCA was added thereto (final concentration 10%). Subsequently the cell was fixed by being left alone at 4° C. for 1 hour. The well was washed 4 times by distilled water and then dried. After that 100 μl of SRB (Sulforhodamine B, Sigma Chemical Co.) solution (0.4% w/v in 1% acetic acid) was added thereto and then it was left alone at ordinary temperature for 30 minutes. Thereafter the well was washed 4 times by 1% acetic acid and dried. And then after adding 200 μl of 10 mM tris buffer, the absorbance at 570 nm was measured by automatic microplate reader (Model: Elx 808, Bio-Tek Instrument, INC). The viability was calculated from the ratio of the absorbance of the control to which drugs were not added and the well to which drugs were added.
# [2] = system: L5178Y lymphoma; experiment: Inhibiting activity on cell proliferation, MTT analysis (L5178Y); type: cell-based, murine; conditions: Mus musculus, 72 h, L5178Y lymphoma cells, 3 days with drug
# Method: as §1, §2
# The tumor cell was cultured with drugs for 3 days and then 50 μl of MTT (3-(4,5-dimethylthiazole-2-yl)-2,5-diphenyl tetrazolium bromide, Sigma Chemical Co.) solution (2.5 mg/ml in PBS) was added thereto. And it was further cultured for 4 hours at 37° C. Culture medium was removed carefully. And after dissolving formazan crystal by adding 150 μl of DMSO, the absorbance at 570 nm was determined.
# [3] = system: SD rats; experiment: Acute oral toxicity test on rats; type: in vivo; conditions: single oral dose 1 g/kg/15 ml in 0.5% methylcellulose
# Method: The acute toxicity test was carried out using 6-weeks-old SD rats. Each Example of O-(4-(2-hydroxyethoxy)cinnamoyl)fumagillol (a compound of the Example 1), O-(3,5-dimethoxy-4-(2-hydroxyethoxy)cinnamoyl)fumagillol (a compound of the Example 2) and O-(4-(2-hydroxyethoxy)-3-methoxycinnamoyl)fumagillol (a compound of the Example 3) was suspended in 0.5% methylcellulose, and then orally administrated once to 5 of each male and each female rats per group by dosage of 1 g/kg/15 ml. After administrating the test substances, the death of the rats, clinic symptoms and the change of weight were observed. And also hematologic and blood biochemical tests were executed, the abnormality of abdominal and thoracic organs was observed by autopsy with the naked eye.
# [4] = Solubility test; type: physicochemical; conditions: ordinary temperature
# Method: To a constant amount (400 mg) of each compounds of present invention, a constant amount of demineralized water, methanol and ethanol were added separately, and the solution was stirred at ordinary temperature.
# [5] = 1 month
# Method: (§3) Each compound of the present invention was kept in an air-tight vessel for 1 month at 40±2° C. and 75±5% of relative humidity. Thereafter the HPLC purity test was executed.
# (§4) 25 mL of the solution was precisely taken, and poured into 100 mL volumetric flask. Acetonitrile/20 mM ammonium acetate aqueous solution (50:50) was added thereto to be the total volume of 100 ml. The solution was filtrated, and the filtrate was used as a test liquid.
# (§5) (2) Operational Condition of Instrument. • Column: Kromasil®C18 (UG 100 Å, 5 μm, 4.6 mm Φ×250 mm) • Column temperature: 30° C. • Mobil phase: 20 mM ammonium acetate (pH 4.2) buffer:acetonitrile (55:45) • Injection volume: 20 μL • Flow rate: 1.2 mL/min • Detector: UV light-absorption Spectrophotometer (detection wavelength: 306 nm)
# [6] = Chemical stability test (HPLC purity); conditions: for change of purity (in words) / 1 month Other peaks (%) / 1 month Parent peak (%): 1 month at 40±2° C.; for change of purity (in words) / 1 month Other peaks (%) / 1 month Parent peak (%) / change of purity (%): 75±5% relative humidity; for 1 month Other peaks (%) / 1 month Parent peak (%) / Initial Other peaks (%) / Initial Parent peak (%): HPLC; for 1 month Other peaks (%) / 1 month Parent peak (%): air-tight vessel; for change of purity (%): initial vs 1 month at 40±2° C.
# Method: as §3, §4, §5
structure (smiles),measurement,setting,value
"COc1cc(/C=C/C(=O)O[C@@H]2CC[C@]3(CO3)[C@@H]([C@@]3(C)O[C@@H]3CC=C(C)C)[C@@H]2OC)cc(OC)c1OCCO [Example 2, O-(3,5-dimethoxy-4-(2-hydroxyethoxy)cinnamoyl)fumagillol]",IC50,[1],0.0025 nM
same,Selectivity Index (L5178Y/CAPE),[1]; IC50 L5178Y / IC50 CPAE,1.00 × 10^7
same,effect compared to CKD-731 against CPAE,[1],equivalent or not smaller than twice effect of CKD-731
same,effect compared to CKD-731 against SI,[1],equivalent or more effect of CKD-731
same,IC50,[2],25000 nM
same,"clinic symptoms, death and change by toxicity (autopsy)",[3],"no notable clinic symptoms, death and change by toxicity"
same,"The amount of solvent to dissolve 1 g of the compounds (ml), demineralized water",[4],146 mL
same,"The amount of solvent to dissolve 1 g of the compounds (ml), ethanol",[4],59 mL
same,"The amount of solvent to dissolve 1 g of the compounds (ml), methanol",[4],37 mL
same,chemical stability compared to known compounds,[5],"more excellent chemical stability than TNP-470, CKD-732 and CKD-731"
same,change of purity (in words),[6],hardly showed a change of purity
same,1 month Other peaks (%),[6],0.9%
same,1 month Parent peak (%),[6],99.1%
same,Initial Other peaks (%),[6],0.9%
same,Initial Parent peak (%),[6],99.1%
same,change of purity (%),[6],0%
"COc1cc(/C=C/C(=O)O[C@@H]2CC[C@]3(CO3)[C@@H]([C@@]3(C)O[C@@H]3CC=C(C)C)[C@@H]2OC)ccc1OCCO [Example 3, O-(4-(2-hydroxyethoxy)-3-methoxycinnamoyl)fumagillol]",IC50,[1],0.0045 nM
same,effect compared to CKD-731 against CPAE,[1],equivalent or not smaller than twice effect of CKD-731
same,effect compared to CKD-731 against SI,[1],equivalent or more effect of CKD-731
same,IC50,[2],56400 nM
same,"clinic symptoms, death and change by toxicity (autopsy)",[3],"no notable clinic symptoms, death and change by toxicity"
same,"The amount of solvent to dissolve 1 g of the compounds (ml), demineralized water",[4],142 mL
same,"The amount of solvent to dissolve 1 g of the compounds (ml), ethanol",[4],61 mL
same,"The amount of solvent to dissolve 1 g of the compounds (ml), methanol",[4],45 mL
same,chemical stability compared to known compounds,[5],"more excellent chemical stability than TNP-470, CKD-732 and CKD-731"
same,change of purity (in words),[6],hardly showed a change of purity
same,1 month Other peaks (%),[6],1.6%
same,1 month Parent peak (%),[6],98.4%
same,Initial Other peaks (%),[6],1.5%
same,Initial Parent peak (%),[6],98.5%
same,change of purity (%),[6],0.1%
